We go through one molecule from patent publication US12551447B2, “Combination solid oral dosage forms of gonadotropin-releasing hormone antagonists” (Sumitomo Pharma Co., Ltd., priority 2020, dated 2026).

This series can be described thus: BioPharmaceutical Classification System (BCS) solubility and permeability class. The class given is physicochemical. The note with it: BCS 4 = poorly soluble and poor permeability. On the procedure: The BioPharmaceutical Classification System (BCS) classifies drug substances as to their solubility and permeability. For example, a drug substance is considered highly soluble when the highest dose strength is soluble in ≤250 ml water over a pH range of 1-7, and highly permeable when the extent of absorption in humans is determined to be >90% of an administered dose, in comparison to an intravenous reference dose. A BCS 1 compound is highly soluble and highly permeable, while a BCS 4 compound is poorly soluble and has poor permeability. For BCS 4 compounds, bioavailability and the pharmacokinetic (PK) profile or parameters, such as mean maximum plasma concentration (Cmax), mean time to maximum plasma concentration (Tmax) and mean area under the plasma concentration vs. time curve (AUC) after oral administration, can be positively or negatively impacted by the formulation, the type of the excipients selected and the specific excipients. The safety and efficacy of the fixed combination oral product depends on these PK parameters being in the appropriate range. Compound 1 is a BCS 4 compound and therefore for fixed combination oral products having compound 1, or a corresponding amount of a pharmaceutically acceptable salt thereof, the type and specifics of the excipients must be carefully selected so as to achieve the target pharmacokinetic parameters.

On to `CONC(=O)Nc1ccc(-c2sc3c(c2CN(C)C)c(=O)n(-c2ccc(OC)nn2)c(=O)n3Cc2c(F)cccc2F)cc1` [Compound 1, N-(4-(1-(2,6-difluorobenzyl)-5-((dimethylamino)methyl)-3-(6-methoxy-3-pyr-idazinyl)-2,4-dioxo-1,2,3,4-tetrahydrothieno[2,3-d]pyrimidin-6-yl)phenyl)-N′-methoxyurea], for which the BCS class result is recorded as “BCS 4”.
